Assay results from article PMC10135964, “One Scaffold, Two Conformations: The Ring-Flip of the Messenger InsP8 Occurs under Cytosolic Conditions” (Biomolecules, 2023).
Entries after “also recorded” stand apart in the source; their conditions may differ.

How the values were obtained:
[1] = 31P-NMR titrations of InsP8 (protonation, K+ and Mg2+ complex formation constants, HypNMR); format: physicochemical; settings: for pH of the conformational change: 1 mM InsP8, 22 °C
Method: In order to create a system free of coordinating counterions, a batch of InsP8 was synthesized as described above, by enzymatic phosphorylation of 5PP-InsP5 and precipitation with Mg^2+, followed by Mg^2+ chelation on Amberlite® cation exchange resin. Unlike in the standard procedure, the resin was loaded with NMe4Cl instead of NH4CO3, resulting in a batch of InsP8 with non-coordinating NMe4^+ counterions. 1 mM EDTA was added to all ^31P-NMR titrations to chelate remaining traces of Mg^2+.
NMR-samples contained 1 mM InsP8, 1 mM EDTA, pH 3.0–12.5 (in H2O, steps of 0.5 pH units) and a) for the non-coordinating condition: 150 mM NMe4Cl or b) 150 mM KCl or c) 150 mM KCl and 1 mM MgCl2. Sealed glass capillaries containing 50 mM phosphonoacetic acid in D2O were added into the sample tubes for locking and chemical shift calibration.
^31P-NMR spectra were recorded at 295 K on a Bruker spectrometer (see above) operating at 600 MHz for protons and 244 MHz for phosphorous nuclei. SW: −40 ppm to −20 ppm, NS: 1024. Spectra at pH 3.0 were assigned by various 2D-NMR methods (Figure S5) and chemical shift changes were tracked across the pH range.
The data were analyzed using the HypNMR 2006 software (Hyperquad Limited, Lincoln, UK). Different possible stoichiometries were tested, and the final chemical models were selected on the basis of the σ parameter (scaled sum of square differences between predicted and experimental chemical shift values), the model confidence level estimator (chi square), and the internal consistency of data reflected in standard deviations of the formation constants. Species distribution diagrams were produced using the HySS program (Hyperquad Limited, Lincoln, UK).

[2] = 1H,13C BIRD-HMQC NMR quantification of axial vs. equatorial conformer; format: physicochemical; settings: 50 µM, 130 mM KCl, 10 mM NaCl, 4 °C
Method: Samples for HMQC-NMR studies contained 50 µM ^13C6-labeled InsPs (InsP6/5PP-InsP5/InsP8), 2 mM bis-tris-propane, 130 mM KCl, 10 mM NaCl and 0/50/250 µM MgCl2 in D2O.
BIRD-HMQC NMR spectra were recorded at 277 K and 600 MHz (^1H frequency) on a Bruker AV-III NMR spectrometer (Bruker Biospin, Rheinstetten, Germany) using cryogenically cooled 5 mm QCI-triple resonance probe equipped with one-axis self-shielded gradients. The spectrometer was operated using topspin 3.5 pl6 software. Instrument temperature was calibrated against […] according to Findeisen et al.. Acquisition parameters were SW(^13C): 60–90 ppm, NS: 128, TD(^13C): 64.
BIRD-HMQC spectra were recorded at 277 K as described above, with samples containing 200 µM InsPs, 130 mM KCl, 10 mM NaCl, 2mM BTP in D2O. pH was set to pH* 9.5 for InsP6, pH* 8.8 for 5PP-InsP5 and pH* 8.5 for InsP8 (pH = 0.929 × pH* + 0.42 [35]). NOESY-HMQC spectra of the same samples were subsequently recorded using mixing times of 80 ms for InsP6 and 5PP-InsP5 and 200 ms for InsP8. Conformational exchange on the time-scale of the experiment created cross-peaks between corresponding peaks in different conformations, which allowed us to assign each peak of the equatorial conformer to its axial counterpart.

[3] = Van't Hoff thermodynamic analysis of InsP8 conformational equilibrium; format: physicochemical; settings: 10 mM NaCl; for ΔH^0 of eq. to ax. conformational transition / ΔS^0 of eq. to ax. conformational transition: 50 µM InsP8, pH* 7.5, 130 mM KCl
Method: BIRD-HMQC NMR spectra were recorded as described above, at 274–283 K in 1 K steps, two replicate samples per condition. Instrument temperature was calibrated against d4-methanol according to Findeisen et al..
Samples contained 50 µM InsP8, 5 mM HEPES pH* 7.5 (pH set on ice), 130 mM KCl, 10 mM NaCl, and either 100 µM or 250 µM MgCl2. Acquisition parameters were SW(^13C): 62–82 ppm, NS: 2048, TD(^13C): 16.
The best-isolated peaks (the 2-peak of ax. and 1-peak of eq. conformer) were integrated, subtracting 1PP-InsP5 impurities. The ax./eq. ratio (i.e., equilibrium constant K for the eq. to ax. transition) was plotted against 1/T, where T is temperature in Kelvin.
ΔH^0 and ΔS^0 were calculated from the regression line. Two replicates were combined for the linear regression.

[4] = 1H,13C BIRD-HMQC NMR quantification of axial vs. equatorial conformer; format: physicochemical; settings: pH* 7.5, 5 equiv. Ca2+, 130 mM KCl, 10 mM NaCl
VTC complex = system: VTC complex; design: method as in PMID 28186404; settings: in vitro, VTC complex from budding yeast S. cerevisiae; cited from earlier work

- pH of the conformational change ([1]; 150 mM K+): 8.5–9.0
- pH of the transition to the equatorial conformation ([1]; 150 mM KCl and 1 mM MgCl2, 1 mM InsP8, 22 °C): ~8.5
- log K, 2 K^+ + H5L^9− ↔ [K2(H5L)]^7− ([1]; 31P NMR, 22 °C, I = 0.15 M): 3.820(7)
- log K, 3 K^+ + H4L^10− ↔ [K3(H4L)]^7− ([1]; 31P NMR, 22 °C, I = 0.15 M): 5.446(5)
- log K, 4 K^+ + H2L^12− ↔ [K4(H2L)]^8− ([1]; 31P NMR, 22 °C, I = 0.15 M): 9.76(3)
- log K, 5 K^+ + HL^13− ↔ [K5(HL)]^8− ([1]; 31P NMR, 22 °C, I = 0.15 M): 12.47(3)
- log K, K^+ + H6L^8− ↔ [K(H6L)]^7− ([1]; 31P NMR, 22 °C, I = 0.15 M): 2.58(5)
- log K, K^+ + H7L^7− ↔ [K(H7L)]^6− ([1]; 31P NMR, 22 °C, I = 0.15 M): 2.08(3)
- log K, L^14− + 2 H^+ ↔ H2L^12− ([1]; 31P NMR, 22 °C, I = 0.15 M): 22.78(2)
- log K, L^14− + 3 H^+ ↔ H3L^11− ([1]; 31P NMR, 22 °C, I = 0.15 M): 34.22(2)
- log K, L^14− + 4 H^+ ↔ H4L^10− ([1]; 31P NMR, 22 °C, I = 0.15 M): 43.96(2)
- log K, L^14− + 5 H^+ ↔ H5L^9− ([1]; 31P NMR, 22 °C, I = 0.15 M): 52.58(3)
- log K, L^14− + 6 H^+ ↔ H6L^8− ([1]; 31P NMR, 22 °C, I = 0.15 M): 59.41(8)
- log K, L^14− + 7 H^+ ↔ H7L^7− ([1]; 31P NMR, 22 °C, I = 0.15 M): 64.91(6)
- log K, L^14− + 8 H^+ ↔ H8L^6− ([1]; 31P NMR, 22 °C, I = 0.15 M): 68.79(7)
- log K, L^14− + H^+ ↔ HL^13− ([1]; 31P NMR, 22 °C, I = 0.15 M): 11.21(1)
- log K, Mg^2+ + H2L^12− + 3 K^+ ↔ [MgK3(H2L)]^7− ([1]; 31P NMR, 22 °C, I = 0.15 M): 18.1(1)
- log K, Mg^2+ + H4L^10− + 2 K^+ ↔ [MgK2(H4L)]^6− ([1]; 31P NMR, 22 °C, I = 0.15 M): 11.6(1)
- log K, Mg^2+ + H5L^9− + K^+ ↔ [MgK(H5L)]^6− ([1]; 31P NMR, 22 °C, I = 0.15 M): 9.1(1)
- log K, Mg^2+ + H6L^8− + K^+ ↔ [MgK(H6L)]^5− ([1]; 31P NMR, 22 °C, I = 0.15 M): 7.3(1)
- log K, Mg^2+ + HL^13− + 4 K^+ ↔ [MgK4(HL)]^7− ([1]; 31P NMR, 22 °C, I = 0.15 M): 21.6(1)
- log K, Mg^2+ + L^14− + 4 K^+ ↔ [MgK4L]^8− ([1]; 31P NMR, 22 °C, I = 0.15 M): 22.4(1)
- negative charges carried ([1]; pH 7.4): 10–11
- most abundant species ([1]; physiological pH range, 150 mM KCl and 1 mM MgCl2, 22 °C): [MgK3(H3L)]^6−
- pH of the conformational change ([1]; without coordinating cations (150 mM NMe4Cl)): ~11
- proportion in axial conformation ([2]; pH* 7.5 (=pH 7.4), 1 equiv. Mg2+): about 10%
- proportion in axial conformation ([2]; pH* 8.5, without divalent cations): about half
- ΔH^0 of eq. to ax. conformational transition ([3]; 2 equiv. MgCl2, 274–283 K): -17.1 ± 2.1 kcal/mol
- ΔS^0 of eq. to ax. conformational transition ([3]; 2 equiv. MgCl2, 274–283 K): −0.063 ± 0.008 kcal/(mol·K)
- ΔH^0 of eq. to ax. conformational transition ([3]; 5 equiv. MgCl2, 274–283 K): -7.2 ± 1.9 kcal/mol
- ΔS^0 of eq. to ax. conformational transition ([3]; 5 equiv. MgCl2, 274–283 K): −0.025 ± 0.007 kcal/(mol·K)
- axial conformer estimated at 37 °C (Gibbs-Helmholtz equation) ([3]; 2 equiv. Mg2+, pH* 7.5, 130 mM KCl): about 2%
- axial conformer predicted at 37 °C (310 K) ([3]; 5 equiv. Mg2+, pH* 7.5, 130 mM KCl): 29%
- proportion in axial conformation [4]: About 15%
Compound: O=P(O)(O)O[C@@H]1[C@@H](OP(=O)(O)O)[C@H](OP(=O)(O)OP(=O)(O)O)[C@@H](OP(=O)(O)O)[C@H](OP(=O)(O)OP(=O)(O)O)[C@@H]1OP(=O)(O)O [InsP8, 1,5(PP)2-InsP4]
- proportion in axial conformation ([2]; pH* 7.5, 5 equiv. Mg2+): about half; also recorded: almost equally distributed between its axial and equatorial forms
- effectiveness at activating polyphosphate synthesis by the VTC complex (VTC complex): twenty-times more effective than 5PP-InsP5
